Reference: the CheMixHub ionic liquid set

Experiment: xn = mol fraction of the nth substance listed
Conditions: 101 kPa

CCCCCCCCCCCCCCCC[n+]1ccccc1.O=C([O-])c1ccccc1O + CC(C)[C@H](N)C(=O)O + O
electrical conductivity [S/m]
Conditions | 293.15 K | 298.15 K | 303.15 K | 308.15 K | 313.15 K
x2 = 0.0009002, x1 = 3.6e-07 | 0.000683 | 0.000771 | 0.000864 | 0.000967 | 0.00108
x2 = 0.0009002, x1 = 7.2e-07 | 0.000869 | 0.000983 | 0.0011 | 0.00123 | 0.00136
x2 = 0.0009002, x1 = 1.27e-06 | 0.00105 | 0.00118 | 0.00133 | 0.00148 | 0.00164
x2 = 0.0009002, x1 = 1.63e-06 | 0.00122 | 0.00138 | 0.00155 | 0.00173 | 0.00192
x2 = 0.0009002, x1 = 1.99e-06 | 0.00138 | 0.00156 | 0.00175 | 0.00194 | 0.00215
x2 = 0.0009002, x1 = 2.35e-06 | 0.00152 | 0.00174 | 0.00196 | 0.00219 | 0.00243
x2 = 0.0009002, x1 = 2.9e-06 | 0.00168 | 0.00193 | 0.00219 | 0.00247 | 0.00274
x2 = 0.0009002, x1 = 3.44e-06 | 0.00182 | 0.00207 | 0.00235 | 0.00266 | 0.003
x2 = 0.0009002, x1 = 3.98e-06 | 0.00195 | 0.00223 | 0.00254 | 0.00287 | 0.00322
x2 = 0.0009002, x1 = 4.53e-06 | 0.00208 | 0.00236 | 0.00269 | 0.00303 | 0.00342
x2 = 0.0009002, x1 = 4.89e-06 | – | – | – | 0.0032 | 0.00359
x2 = 0.0009002, x1 = 5.07e-06 | 0.00218 | 0.00249 | 0.00283 | – | –
x2 = 0.0009002, x1 = 5.43e-06 | 0.00228 | 0.0026 | 0.00295 | 0.00334 | 0.00376
x2 = 0.0009002, x1 = 5.79e-06 | 0.00238 | 0.00271 | 0.00307 | 0.00346 | 0.00389
x2 = 0.0009002, x1 = 6.16e-06 | 0.00246 | 0.0028 | 0.00317 | 0.00358 | 0.00403
x2 = 0.001799, x1 = 1.8e-07 | 0.00108 | 0.00122 | 0.00138 | 0.00154 | 0.00173
x2 = 0.001799, x1 = 3.6e-07 | 0.00119 | 0.00135 | 0.00152 | 0.00169 | 0.00189
x2 = 0.001799, x1 = 7.3e-07 | 0.00132 | 0.00149 | 0.00168 | 0.00188 | 0.00209
x2 = 0.001799, x1 = 1.09e-06 | 0.00145 | 0.00164 | 0.00185 | 0.00206 | 0.0023
x2 = 0.001799, x1 = 1.27e-06 | 0.00157 | 0.00178 | 0.00199 | 0.00222 | 0.00248
x2 = 0.001799, x1 = 1.46e-06 | 0.00171 | 0.00193 | 0.00216 | 0.00242 | 0.00269
x2 = 0.001799, x1 = 1.64e-06 | 0.00177 | 0.002 | 0.00225 | 0.00252 | 0.0028
x2 = 0.001799, x1 = 1.82e-06 | 0.00183 | 0.00207 | 0.00233 | 0.0026 | 0.0029
x2 = 0.001799, x1 = 2e-06 | 0.00188 | 0.00213 | 0.0024 | 0.00268 | 0.00299
x2 = 0.001799, x1 = 2.18e-06 | 0.00196 | 0.00224 | 0.00252 | 0.00282 | 0.00314
x2 = 0.001799, x1 = 2.37e-06 | – | 0.00234 | 0.00267 | 0.00298 | 0.00332
x2 = 0.001799, x1 = 2.55e-06 | 0.00205 | – | – | – | –
x2 = 0.001799, x1 = 2.73e-06 | 0.00216 | 0.00248 | – | 0.00317 | 0.00355
x2 = 0.001799, x1 = 3.09e-06 | 0.00226 | 0.00258 | 0.00292 | 0.0033 | 0.0037
x2 = 0.001799, x1 = 3.46e-06 | 0.00234 | 0.00268 | 0.00304 | 0.00342 | 0.00384

CCCC[n+]1ccn(C)c1.COP(=O)([O-])OC + CCC(=O)O.CCC(=O)[O-].CC[NH+](CC)CCO
x2 = 0
Conditions | viscosity [mPa·s]
283.15 K | 2142
328.15 K | 100.9
343.15 K | 52.35
373.15 K | 19.25

CCCCCCCCn1cc[n+](C)c1.F[B-](F)(F)F + CCC(C)=O
298.15 K
Conditions | viscosity [mPa·s]
x2 = 0.101 | 188
x2 = 0.4505 | 24.78
x2 = 0.7023 | 5.04
x2 = 0.8033 | 2.29
x2 = 0.899 | 1.03

CCCC[n+]1ccn(C)c1.COP(=O)([O-])OC + CCCC(=O)[O-].CC[NH+](CC)CCO
x2 = 0
Conditions | viscosity [mPa·s]
298.15 K | 609
318.15 K | 168.9
328.15 K | 100.9
348.15 K | 43.18
373.15 K | 19.25

CCCC[n+]1ccn(C)c1.COP(=O)([O-])OC + CCCCC(=O)[O-].CC[NH+](CC)CCO
x2 = 0
Conditions | viscosity [mPa·s]
303.15 K | 426
323.15 K | 129.4
328.15 K | 100.9
348.15 K | 43.18
358.15 K | 30.38
368.15 K | 22.22
373.15 K | 19.25
